Experimental data reported in patent US20020064790A1, “Design of drugs involving receptor-ligand-DNA interactions” (priority 1993, published 2002).
Entries after “also recorded” stand apart in the source; their conditions may differ. Structures can show the parent of a compound that is named as a salt. Where two headings read alike, the source gives them in different places.

How the values were obtained:
[1] = tested on: MCF-7 (E-3) human breast cancer cells; experiment: Inhibition of estrogen stimulated growth of MCF-7 (E-3) cells, 9 day model; type: cell-based; settings: for IC50: MCF-7 (E-3), estrogen stimulated growth, 9 day model; for inhibition of estrogen stimulated cell growth: MCF-7 (E-3) cells
estrogen receptor [2] = target: T1, estrogen receptor (Homo sapiens, UniProt P03372); experiment: Estrogen receptor binding
T1 sequence (P03372 1-595): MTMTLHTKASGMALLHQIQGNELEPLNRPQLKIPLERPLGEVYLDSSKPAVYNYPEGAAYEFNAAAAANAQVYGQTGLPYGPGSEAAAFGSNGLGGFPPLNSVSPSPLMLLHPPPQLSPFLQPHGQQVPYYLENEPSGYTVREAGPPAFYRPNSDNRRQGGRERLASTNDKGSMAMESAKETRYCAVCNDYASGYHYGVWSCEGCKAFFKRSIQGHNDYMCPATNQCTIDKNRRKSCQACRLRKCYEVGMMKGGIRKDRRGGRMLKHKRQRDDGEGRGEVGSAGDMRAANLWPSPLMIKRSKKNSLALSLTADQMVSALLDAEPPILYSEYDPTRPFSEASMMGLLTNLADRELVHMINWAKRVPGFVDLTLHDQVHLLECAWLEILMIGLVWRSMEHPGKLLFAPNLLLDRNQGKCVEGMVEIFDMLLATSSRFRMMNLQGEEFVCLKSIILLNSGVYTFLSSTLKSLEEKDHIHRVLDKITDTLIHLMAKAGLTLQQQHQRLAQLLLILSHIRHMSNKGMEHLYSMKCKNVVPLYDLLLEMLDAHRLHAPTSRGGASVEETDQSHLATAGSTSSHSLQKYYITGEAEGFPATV

Nb2 lymphoma cells = experiment: DNA synthesis measured by thymidine incorporation; type: cell-based, rat
From the text: (§1) The mode of action of these piperidinediones is still not proven. […] At the same time, direct binding of such anti-estrogens to DNA appears to be weak. Taken as a whole, these findings support the possibility of a weak interaction of the piperidinediones with both DNA and the estrogen receptor, involving a receptor mediated insertion of the ligand into DNA.

DNA = experiment: Binding of piperidinedione to DNA
From the text: as §1

androgenic activity = settings: published findings by Hilgar and Hummel; cited from earlier work
estrogen receptor [3] = target: T1, estrogen receptor; settings: cited from earlier work
[4] = tested on: uterotropic (estrogenic) activity; settings: relative to estradiol, Peters et al.; cited from earlier work
[5] = tested on: uterotropic (estrogenic) activity; experiment: Uterotropic (estrogenic) activity in vivo
[6] = tested on: various animal and human tumor cells; experiment: Growth inhibition in various animal and human tumor cells; type: cell-based
Experimental: (§2) These synthetic derivatives were assessed for biological potency by measuring their growth inhibitory effects on various cell lines using concentrations of […] based on the reported IC50 of 3-phenylacetylamino-2,6 piperidinedione in Nb2 cells.
3-Phenylacetylamino-2,6-piperidinedione (A10) is a modified amino-acid derivative, which was originally isolated from freeze-dried human urine. […] The focus of the following study was to develop more- potent analogs. […] It was observed that placing a hydroxyl group at the para position of the phenyl group of A10 would enable a second hydrogen bond to form thereby substantially enhancing fit as reported by Hendry et al., J. Steroid Biochem. Molec. Biol. 48:495-505 (1994), the teachings of which are hereby incorporated by reference in their entirety.

[7] = tested on: MCF-7 human breast cancer cells; experiment: MCF-7 cell growth (cell number) with SGI compounds; type: cell-based; settings: dose 10^−8 M; control 252,197 cells
[8] = tested on: human leukemia (K652) cells; experiment: Growth inhibition in human leukemia K562 cells; type: cell-based
YAK lymphoma cells = experiment: Growth inhibition in YAK lymphoma cells; type: cell-based; settings: rank among derivatives
Experimental: as §2

rat Nb2 lymphoma cells = experiment: Inhibition of prolactin stimulated growth of Nb2 lymphoma cells; type: cell-based

With `O=C1CCC(NC(=O)Cc2ccccc2)C(=O)N1` (stereo not drawn) [3-phenylacetylamino-2,6-piperidinedione] the IC50 ([1]; Homo sapiens, MCF7, 216 h) was 3 mM, the “inhibition of estrogen stimulated cell growth” value [1] was “inhibited” and the “binding for the estrogen receptor” value (estrogen receptor [2]) was “neither 3-phenylacetylamino-2,6-piperidinedione nor phydroxy-3-phenylacetylamino-2,6-piperidinedione exhibited appreciable binding”. For the same compound, the “DNA synthesis measured by thymidine incorporation” value (Nb2 lymphoma cells) was “significantly inhibited”, the “covalent adducts with DNA” value (DNA) was “No covalent adducts” and the “binding to DNA” value (DNA; in comparison to classical intercalating drugs) was “weak and reversible”.

For `C[C@]12CCC(=O)C[C@@H]1CC[C@@H]1[C@@H]2CC[C@]2(C)[C@@H](O)CC[C@@H]12` [5α-dihydrotestosterone], the androgenic activity (androgenic activity) is given as “highly active androgen”.

For `C[C@]12CCC(=O)C[C@@H]1CC[C@@H]1[C@@H]2CC[C@]2(C)[C@@H](O)CC[C@@H]12` [5β-dihydrotestosterone], the androgenic activity (androgenic activity) is given as “essentially inactive”.

In the case of `C[C@@H]1Cc2cc(O)ccc2[C@@H]2[C@@H]1[C@@H]1CC[C@H](O)[C@@]1(C)C[C@@H]2O[N+](=O)[O-]` [7α-methylestradiol-11β-nitrate ester, 3,11β, 17β-trihydroxy-7α-methylestra-1,3, 5 (10)-triene 11-nitrate ester], the “binding to the estrogen receptor relative to estradiol” value (estrogen receptor [3]) is given as “less than 6 % of the binding of estradiol” and the uterotropic activity [4] is given as “considerably greater than that of estradiol”.

In the case of `C[C@]12CC[C@H]3c4ccc(O)cc4CC[C@H]3[C@@H]1CC[C@@H]2O` [9β-estradiol], the “estrogenic (uterotropic) activity in vivo” value [5] is reported as “inactive; also recorded: little uterotropic activity”.

In the case of `CC(=O)O[C@H]1C[C@]2(C)[C@@H](O)CC[C@H]2[C@@H]2CCc3cc(O)ccc3[C@H]21` [11β-acetoxyestradiol], the “estrogenic (uterotropic) activity in vivo” value [5] is reported as “more active than estradiol”.

With `O=C1CCC(NC(=O)Cc2ccc(F)cc2)C(=O)N1` (stereo not drawn) [p-fluoro derivative] the “potency in tumor cell growth inhibition relative to A10” value [6] was “lack of increased potency”.

In the case of `CC/C(=C(\c1ccccc1)c1ccc(OCCN(C)C)cc1)c1ccccc1` [tamoxifen citrate], the “number of MCF-7 cells” value [7] is reported as 187,759 cells.

In the case of “p-hydroxy-3-phenylacetylamino-2,6-piperidinedione”, the “inhibition of estrogen stimulated cell growth” value [1] is reported as “inhibited”, the IC50 [1] is reported as 0.007 mM and the “dose response comparison of growth inhibition” value ([8]; 10^−5 to 10^−2 M) is reported as “more active than the unsubstituted compound”. For the same compound, the growth inhibitory effect ([8]; rank among analogs) was “most active analog”, the “potency in tumor cell growth inhibition relative to A10” value [6] was “most potent compound” and the “potency in tumor cell growth inhibition relative to A10” value ([6]; listed as p-OH-A10) was “as much as an order of magnitude more active than A10”. The growth inhibitory effect (YAK lymphoma cells) was “most active derivative”, the “binding for the estrogen receptor” value (estrogen receptor [2]) was “neither 3-phenylacetylamino-2,6-piperidinedione nor phydroxy-3-phenylacetylamino-2,6-piperidinedione exhibited appreciable binding” and the “growth inhibition over concentration range” value (rat Nb2 lymphoma cells; Nb2 lymphoma cells, 10^−4 M to 10^−3 M) was “more active in Nb2 lymphoma cells than 3-phenylacetylamino-2,6 piperidinedione”. For the same compound, the “inhibition of prolactin stimulated growth” value (rat Nb2 lymphoma cells; rat Nb2 lymphoma cells) was “greatest activity”.
